Here are results for one substance from patent US20050181042A1, “Composition for oral or rectal administration” (priority 2002, published 2005).

This data set in a line: Plasma gentamycin after oral administration to NZW rabbits. It is filed as in vivo. The following applies: for Plasma concentration of gentamycin: n = 3. The method, then: NZW rabbits were used in all experiments and all tablet/capsules were administered orally. The animals were given four, five or six tablets/capsules followed by water until they had swallowed the tablets/capsules. The animals were deprived of food for about 18 hours before dosing. […] The blood samples were centrifuged for 10 min at approximately 2000×g to obtain plasma for determination of gentamycin by EMIT 2000 TDM assay on a Hitachi 704 Analyzer (Table 10).
The area under the curve (AUC) was calculated by the linear trapezoidal rule to the last blood concentration. Two different doses (5 or 10 mg/kg bodyweight) were used during the experiments. For comparison of the results of the different formulations the AUC was divided by the respective dose of gentamycin. The obtained plasma concentration for pure gentamycin was set to 1. The obtained plasma concentrations for gentamycin in the three different lipid formulations were then expressed as multiple factors of increasing bioabsorption.

Take Gentamycin sulphate [Gentamycin 1]: under “dose-adjusted AUC relative to Gentamycin 1”, the “Correlation factor (multiple of bioabsorption, pure gentamycin = 1)” value turned out to be 1. The “Plasma concentration of gentamycin” value by setting is: (oral, dose 10 mg/kg, 0 hrs) 0 microgram/mL; (oral, dose 10 mg/kg, 0.5 hrs) 0.01 microgram/mL; (oral, dose 10 mg/kg, 1 hr) 0.01 microgram/mL; (oral, dose 10 mg/kg, 2 hrs) 0.02 microgram/mL; (oral, dose 10 mg/kg, 4 hrs) 0.01 microgram/mL; (oral, dose 10 mg/kg, 6 hrs) 0.03 microgram/mL. For the setting “oral, dose 10 mg/kg, linear trapezoidal rule to last blood concentration (6 hrs)”, the AUC is on record as 0.09.
